Results from ChEMBL document CHEMBL4706534, “1,2,3-Triazole-containing hybrids with potential antibacterial activity against methicillin-resistant Staphylococcus aureus (MRSA)” (Eur J Med Chem, 2020).
Values after ≈ are worked out from the molar mass of the structure shown.

What was measured:
Staphylococcus aureus [1] = experiment: Antibacterial activity against Methicillin-resistant Staphylococcus aureus N315 incubated for 24 hrs by two fold serial dilution method; assay type: functional
Staphylococcus aureus [2] = experiment: Antibacterial activity against Staphylococcus aureus ATCC 25923 incubated for 24 hrs by two fold serial dilution method; assay type: functional
Staphylococcus aureus [3] = experiment: Antibacterial activity against Methicillin-resistant Staphylococcus aureus 1 incubated for 16 hrs by agar dilution method; assay type: functional
Staphylococcus aureus [4] = experiment: Antibacterial activity against Methicillin-resistant Staphylococcus aureus 2 incubated for 16 hrs by agar dilution method; assay type: functional
Staphylococcus aureus [5] = experiment: Resistance index, ratio of MIC for antibacterial activity against Staphylococcus aureus ATCC 43300 incubated for 16 to 18 hrs by CLSI based assay to MIC for antibacterial activity against Staphylococcus aureus DSM 20231 incubated for 16 to 18 hrs by CLSI based assay; assay type: functional; settings: time 16-18 hrs
Staphylococcus aureus [6] = experiment: Antibacterial activity against methicillin-resistant Staphylococcus aureus ATCC 43300 incubated for 16 to 18 hrs by CLSI based assay; assay type: functional; settings: time 16-18 hrs
Enterococcus = experiment: Antibacterial activity against vancomycin resistant Enterococcus ATCC 51299; assay type: functional
Enterococcus faecalis = experiment: Antibacterial activity against vancomycin susceptible Enterococcus faecalis ATCC 29212; assay type: functional
Staphylococcus aureus [7] = experiment: Antibacterial activity against Methicillin-resistant Staphylococcus aureus ATCC 33591; assay type: functional, organism-based
Staphylococcus aureus [8] = experiment: Antibacterial activity against Staphylococcus aureus ATCC 25923 by CLSI-based broth microdilution method; assay type: functional
Staphylococcus aureus [9] = experiment: Antibacterial activity against methicillin-sensitive Staphylococcus aureus ATCC 29213 by broth microdilution method; assay type: functional
Staphylococcus aureus [10] = experiment: Antibacterial activity against methicillin-resistant Staphylococcus aureus ATCC 33591 by broth microdilution method; assay type: functional

SMILES: Cc1ccc2c(c1)nnn2CC(O)Cn1cnc2cc(F)ccc2c1=O (stereo unspecified)
- MIC (Staphylococcus aureus [1]): ≥ 64 µg/mL
- MIC (Staphylococcus aureus [2]): ≥ 64 µg/mL

SMILES: C#CCOCCOCCOCc1cn([C@H](CC(C)C)C(=O)N[C@@H]2Cc3ccc(c(Cl)c3)Oc3cc4cc(c3O[C@@H]3O[C@H](CO)[C@@H](O)[C@H](O)[C@H]3O[C@H]3C[C@](C)(NCCCCCCCc5ccccc5)[C@H](O)[C@H](C)O3)Oc3ccc(cc3Cl)[C@@H](O)[C@@H]3NC(=O)[C@H](NC(=O)[C@@H]4NC(=O)[C@H](CC(=O)O)NC2=O)c2ccc(O)c(c2)-c2c(O)cc(O)cc2[C@H](C(=O)O)NC3=O)nn1
- MIC (Staphylococcus aureus [3]): 25 µg/mL (≈ 13.9 µM)
- MIC (Staphylococcus aureus [4]): 12.5 µg/mL (≈ 6.93 µM)

SMILES: N=C(N)NCCC[C@H](NC(=O)[C@H](Cc1c[nH]c2ccccc12)NC(=O)[C@H](CCCNC(=N)N)NC(=O)[C@H](Cc1c[nH]c2ccccc12)NC(=O)[C@@H](N)CCCNC(=N)N)C(=O)N[C@@H](Cc1c[nH]c2ccccc12)C(=O)N[C@@H](CCCCn1cc(COc2cccc(OCc3cn(CCCC[C@H](NC(=O)[C@H](Cc4c[nH]c5ccccc45)NC(=O)[C@H](CCCNC(=N)N)NC(=O)[C@H](Cc4c[nH]c5ccccc45)NC(=O)[C@H](CCCNC(=N)N)NC(=O)[C@H](Cc4c[nH]c5ccccc45)NC(=O)[C@@H](N)CCCNC(=N)N)C(N)=O)nn3)c2)nn1)C(N)=O
- Ratio (Staphylococcus aureus [5]): 0.5
- MIC (Staphylococcus aureus [6]): 2.7 µM (≈ 6.97 µg/mL)

SMILES: CN[C@H](CC(C)C)C(=O)N[C@@H]1Cc2ccc(c(Cl)c2)Oc2cc3cc(c2O[C@@H]2O[C@H](CO)[C@@H](O)[C@H](O)[C@H]2O[C@H]2C[C@](C)(N)[C@H](O)[C@H](C)O2)Oc2ccc(cc2Cl)[C@@H](O)[C@@H]2NC(=O)[C@H](NC(=O)[C@@H]3NC(=O)[C@H](CC(=O)O)NC1=O)c1ccc(O)c(c1)-c1c(O)cc(O)cc1[C@H](C(=O)NCCOCCOCCOCCn1cc(CCNC(=O)[C@@H]3NC(=O)[C@H]4NC(=O)[C@H](NC(=O)[C@@H]5NC(=O)[C@H](CC(=O)O)NC(=O)[C@H](NC(=O)[C@@H](CC(C)C)NC)Cc6ccc(c(Cl)c6)Oc6cc5cc(c6O[C@@H]5O[C@H](CO)[C@@H](O)[C@H](O)[C@H]5O[C@H]5C[C@](C)(N)[C@H](O)[C@H](C)O5)Oc5ccc(cc5Cl)[C@H]4O)c4ccc(O)c(c4)-c4c(O)cc(O)cc43)nn1)NC2=O
- MIC (Enterococcus): 0.5 µg/mL (≈ 0.16 µM)
- MIC (Enterococcus faecalis): 0.5 µg/mL (≈ 0.16 µM)
- MIC (Staphylococcus aureus [7]): 0.5 µg/mL (≈ 0.16 µM)

SMILES: CC1(C)S[C@@H]2[C@H](NC(=O)[C@H](N)c3ccccc3)C(=O)N2[C@H]1C(=O)O [AMPICILLIN]
- MIC (Staphylococcus aureus [8]): 4 µg/mL (≈ 11.4 µM)

SMILES: O=c1c2ccc(F)cc2ncn1CC(O)Cn1nnc2ccccc21 (stereo unspecified)
- MIC (Staphylococcus aureus [1]): ≥ 64 µg/mL
- MIC (Staphylococcus aureus [2]): ≥ 64 µg/mL

SMILES: N=C(N)NCCC[C@H](NC(=O)[C@H](Cc1c[nH]c2ccccc12)NC(=O)[C@H](CCCNC(=N)N)NC(=O)[C@H](Cc1c[nH]c2ccccc12)NC(=O)[C@@H](N)CCCNC(=N)N)C(=O)N[C@@H](Cc1c[nH]c2ccccc12)C(=O)N[C@@H](CCCCn1cc(COc2ccccc2)nn1)C(N)=O
- Ratio (Staphylococcus aureus [5]): 0.5
- MIC (Staphylococcus aureus [6]): 2.7 µM (≈ 3.59 µg/mL)

SMILES: CN[C@H](CC(C)C)C(=O)N[C@@H]1Cc2ccc(c(Cl)c2)Oc2cc3cc(c2O[C@@H]2O[C@H](CO)[C@@H](O)[C@H](O)[C@H]2O[C@H]2C[C@](C)(N)[C@H](O)[C@H](C)O2)Oc2ccc(cc2Cl)[C@@H](O)[C@@H]2NC(=O)[C@H](NC(=O)[C@@H]3NC(=O)[C@H](CC(=O)O)NC1=O)c1ccc(O)c(c1)-c1c(O)cc(O)cc1[C@H](C(=O)NCCCCCc1cn(CCOCCOCCOCCNC(=O)[C@@H]3NC(=O)[C@H]4NC(=O)[C@H](NC(=O)[C@@H]5NC(=O)[C@H](CC(=O)O)NC(=O)[C@H](NC(=O)[C@@H](CC(C)C)NC)Cc6ccc(c(Cl)c6)Oc6cc5cc(c6O[C@@H]5O[C@H](CO)[C@@H](O)[C@H](O)[C@H]5O[C@H]5C[C@](C)(N)[C@H](O)[C@H](C)O5)Oc5ccc(cc5Cl)[C@H]4O)c4ccc(O)c(c4)-c4c(O)cc(O)cc43)nn1)NC2=O
- MIC (Enterococcus): 0.5 µg/mL (≈ 0.158 µM)
- MIC (Enterococcus faecalis): 0.5 µg/mL (≈ 0.158 µM)
- MIC (Staphylococcus aureus [7]): 0.5 µg/mL (≈ 0.158 µM)

SMILES: CCCCCCCCc1cn([C@H]2C(=O)N[C@@H]3Cc4ccc(c(Cl)c4)Oc4cc5cc(c4O)Oc4ccc(cc4Cl)[C@@H](O[C@@H]4O[C@H](CO)[C@@H](O)[C@H](O)[C@H]4NC(C)=O)[C@@H]4NC(=O)[C@H](NC(=O)[C@@H]5NC(=O)[C@@H](NC3=O)c3cc(O)cc(c3)Oc3cc2ccc3O)c2ccc(O)c(c2)-c2c(O)cc(O)cc2[C@H](C(=O)O)NC4=O)nn1
- MIC (Staphylococcus aureus [9]): 0.16 µg/mL (≈ 0.102 µM)
- MIC (Staphylococcus aureus [10]): 0.16 µg/mL (≈ 0.102 µM)

SMILES: O=c1c2ccc(Cl)cc2ncn1CC(O)Cn1nnc2ccccc21 (stereo unspecified)
- MIC (Staphylococcus aureus [1]): ≥ 64 µg/mL
- MIC (Staphylococcus aureus [2]): ≥ 64 µg/mL

SMILES: CN[C@H](CC(C)C)C(=O)N[C@@H]1Cc2ccc(c(Cl)c2)Oc2cc3cc(c2O[C@@H]2O[C@H](CO)[C@@H](O)[C@H](O)[C@H]2O[C@H]2C[C@](C)(N)[C@H](O)[C@H](C)O2)Oc2ccc(cc2Cl)[C@@H](O)[C@@H]2NC(=O)[C@H](NC(=O)[C@@H]3NC(=O)[C@H](CC(=O)O)NC1=O)c1ccc(O)c(c1)-c1c(O)cc(O)cc1[C@H](C(=O)NCCCc1cn(CCOCCOCCOCCNC(=O)[C@@H]3NC(=O)[C@H]4NC(=O)[C@H](NC(=O)[C@@H]5NC(=O)[C@H](CC(=O)O)NC(=O)[C@H](NC(=O)[C@@H](CC(C)C)NC)Cc6ccc(c(Cl)c6)Oc6cc5cc(c6O[C@@H]5O[C@H](CO)[C@@H](O)[C@H](O)[C@H]5O[C@H]5C[C@](C)(N)[C@H](O)[C@H](C)O5)Oc5ccc(cc5Cl)[C@H]4O)c4ccc(O)c(c4)-c4c(O)cc(O)cc43)nn1)NC2=O
- MIC (Enterococcus): 0.5 µg/mL (≈ 0.16 µM)
- MIC (Enterococcus faecalis): 0.5 µg/mL (≈ 0.16 µM)
- MIC (Staphylococcus aureus [7]): 0.5 µg/mL (≈ 0.16 µM)

SMILES: CN[C@H](CC(C)C)C(=O)N[C@@H]1Cc2ccc(c(Cl)c2)Oc2cc3cc(c2O[C@@H]2O[C@H](CO)[C@@H](O)[C@H](O)[C@H]2O[C@H]2C[C@](C)(N)[C@H](O)[C@H](C)O2)Oc2ccc(cc2Cl)[C@@H](O)[C@@H]2NC(=O)[C@H](NC(=O)[C@@H]3NC(=O)[C@H](CC(=O)O)NC1=O)c1ccc(O)c(c1)-c1c(O)cc(O)cc1[C@H](C(=O)NCCCCc1cn(CCOCCOCCOCCNC(=O)[C@@H]3NC(=O)[C@H]4NC(=O)[C@H](NC(=O)[C@@H]5NC(=O)[C@H](CC(=O)O)NC(=O)[C@H](NC(=O)[C@@H](CC(C)C)NC)Cc6ccc(c(Cl)c6)Oc6cc5cc(c6O[C@@H]5O[C@H](CO)[C@@H](O)[C@H](O)[C@H]5O[C@H]5C[C@](C)(N)[C@H](O)[C@H](C)O5)Oc5ccc(cc5Cl)[C@H]4O)c4ccc(O)c(c4)-c4c(O)cc(O)cc43)nn1)NC2=O
- MIC (Enterococcus): 0.5 µg/mL (≈ 0.159 µM)
- MIC (Enterococcus faecalis): 0.5 µg/mL (≈ 0.159 µM)
- MIC (Staphylococcus aureus [7]): 0.5 µg/mL (≈ 0.159 µM)

SMILES: N=C(N)NCCC[C@H](NC(=O)[C@H](Cc1c[nH]c2ccccc12)NC(=O)[C@H](CCCNC(=N)N)NC(=O)[C@H](Cc1c[nH]c2ccccc12)NC(=O)[C@@H](N)CCCNC(=N)N)C(=O)N[C@@H](Cc1c[nH]c2ccccc12)C(=O)N[C@@H](CCCCn1cc(COc2cc(OCc3cn(CCCC[C@H](NC(=O)[C@H](Cc4c[nH]c5ccccc45)NC(=O)[C@H](CCCNC(=N)N)NC(=O)[C@H](Cc4c[nH]c5ccccc45)NC(=O)[C@H](CCCNC(=N)N)NC(=O)[C@H](Cc4c[nH]c5ccccc45)NC(=O)[C@@H](N)CCCNC(=N)N)C(N)=O)nn3)cc(OCc3cn(CCCC[C@H](NC(=O)[C@H](Cc4c[nH]c5ccccc45)NC(=O)[C@H](CCCNC(=N)N)NC(=O)[C@H](Cc4c[nH]c5ccccc45)NC(=O)[C@H](CCCNC(=N)N)NC(=O)[C@H](Cc4c[nH]c5ccccc45)NC(=O)[C@@H](N)CCCNC(=N)N)C(N)=O)nn3)c2)nn1)C(N)=O
- Ratio (Staphylococcus aureus [5]): 0.5
- MIC (Staphylococcus aureus [6]): 2.7 µM (≈ 10.4 µg/mL)

SMILES: Cc1ccc2c(c1)nnn2CC(O)Cn1cnc2cc(Cl)ccc2c1=O (stereo unspecified)
- MIC (Staphylococcus aureus [1]): ≥ 64 µg/mL
- MIC (Staphylococcus aureus [2]): ≥ 64 µg/mL
